Measurements taken from US12398154B2, “Azaquinazoline pan-KRas inhibitors” (Mirati Therapeutics, Inc., priority 2020, dated 2025).

What was measured:
[1] = test system: phospho-ERK in MKN1 (WTdep) cells; test: Inhibition of KRas-mediated phosphorylation of ERK (in-cell western); type: cell-based; details: Homo sapiens, MKN-1, 3 hours compound, phospho-ERK normalized to GAPDH
Outline: (§1)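 Following fixation in formaldehyde and permeabilization in cold methanol, ERK phosphorylated at Thr202/Tyr204 was quantified against GAPDH.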

[2] = test system: phospho-ERK in NCI-H460 (Q61H) cells; test: as above; type: cell-based; details: 3 hours compound, phospho-ERK normalized to GAPDH
Outline: as §1

[3] = test system: phospho-ERK in NCI-H358 (G12C) cells; test: as above; type: cell-based; details: Homo sapiens, 3 hours compound, phospho-ERK normalized to GAPDH
Outline: as §1

[4] = test system: phospho-ERK in NCI-H727 (G12V) cells; test: as above; type: cell-based; details: 3 hours compound, phospho-ERK normalized to GAPDH
Outline: as §1

[5] = test system: phospho-ERK in AsPC-1 (G12D) cells; test: as above; type: cell-based; details: 3 hours compound, phospho-ERK normalized to GAPDH
Outline: as §1

[6] = test system: phospho-ERK in PSN-1 (G12R) cells; test: as above; type: cell-based; details: Homo sapiens, PSN1, 3 hours compound, phospho-ERK normalized to GAPDH
Outline: as §1

[7] = test system: phospho-ERK in HCT116 (G13D) cells; test: as above; type: cell-based; details: Homo sapiens, HCT-116, 3 hours compound, phospho-ERK normalized to GAPDH
Outline: as §1

[8] = test system: phospho-ERK in A549 (G12S) cells; test: as above; type: cell-based; details: Homo sapiens, 3 hours compound, phospho-ERK normalized to GAPDH
Outline: as §1

[9] = target: KRas G12D (Homo sapiens, UniProt P01116, G12D); test: biochemical;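 also: TR-FRET displacement binding assay on KRas, read after a one-hour incubation at room temperature, IC50 fitted from percent-of-control values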
Experimental: (§2) The ability of a compound to bind to KRas was measured using a TR-FRET displacement assay. […] After a 60-minute incubation at room temperature, the reaction was measured using a BMG LABTECH CLARIO star Plus via TR-FRET. […] The POC values were fit to a 4-parameter IC50 equation and the IC50 value reported.

[10] = target: KRas G12V (Homo sapiens, UniProt P01116, G12V); test: biochemical;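 also: KRas binding measured by TR-FRET displacement at room temperature, IC50 fitted from percent of control values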
Experimental: as §2

[11] = target: KRas G12R (Homo sapiens, UniProt P01116, G12R); test: biochemical;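 also: TR-FRET displacement assay of compound binding to KRas, read after one hour at room temperature, potency from a four-parameter fit of percent-of-control values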
Experimental: as §2

[12] = target: T1, KRas Q61H (Homo sapiens, UniProt P01116, Q61H); test: KRas binding assay (TR-FRET displacement);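 also: TR-FRET signal read after one hour at room temperature, IC50 derived by four-parameter fitting of percent-of-control values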
T1 construct: Biotinylated KRas (corresponding to amino acids 1-169, produced at Accelegan Inc.); biotin (biotinylated); purchased Accelegan Inc
Experimental: as §2

[13] = target: T2, KRas G13D (Homo sapiens, UniProt P01116, G13D); test: KRas binding assay (TR-FRET displacement);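 also: One-hour room temperature incubation before TR-FRET reading, IC50 from a four-parameter curve fit to percent-of-control data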
T2 construct: Biotinylated KRas (corresponding to amino acids 1-169, produced at Accelegan Inc.); biotin (biotinylated); purchased Accelegan Inc
Experimental: as §2

[14] = target: KRas WT (Homo sapiens, UniProt P01116); test: biochemical;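 also: binding to KRas read as TR-FRET displacement after a one-hour room-temperature incubation, IC50 derived from percent-of-control values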
Experimental: as §2

[15] = target: KRas G12S (Homo sapiens, UniProt P01116, G12S); test: biochemical;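 also: TR-FRET displacement binding to KRas, read after one hour incubation at room temperature, IC50 from four-parameter fit of percent of control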
Experimental: as §2

[16] = target: KRas G12A (Homo sapiens, UniProt P01116, G12A); test: biochemical;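 also: binding to KRas measured by TR-FRET displacement after one hour at room temperature, IC50 from a four-parameter fit of percent-of-control values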
Experimental: as §2

[17] = target: KRas G12C (Homo sapiens, UniProt P01116, G12C); test: biochemical;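 also: binding to KRas assessed by TR-FRET displacement after one hour incubation at room temperature, potency fitted from percent-of-control values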
Sequence of KRas G12C (P01116 1-169 isoform P01116-2 G12C): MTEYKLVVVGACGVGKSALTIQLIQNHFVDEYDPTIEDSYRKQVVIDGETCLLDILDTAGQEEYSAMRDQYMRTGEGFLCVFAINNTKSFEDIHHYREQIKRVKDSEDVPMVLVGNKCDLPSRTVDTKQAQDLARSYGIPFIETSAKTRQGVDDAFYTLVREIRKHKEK
Experimental: as §2

Sequence of KRas G12R (P01116 1-169 isoform P01116-2 G12R): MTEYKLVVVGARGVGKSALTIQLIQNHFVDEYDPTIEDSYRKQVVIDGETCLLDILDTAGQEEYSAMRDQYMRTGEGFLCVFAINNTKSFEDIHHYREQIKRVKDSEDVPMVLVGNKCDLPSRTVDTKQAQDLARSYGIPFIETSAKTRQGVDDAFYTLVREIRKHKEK
Sequence of KRas G12V (P01116 1-169 isoform P01116-2 G12V): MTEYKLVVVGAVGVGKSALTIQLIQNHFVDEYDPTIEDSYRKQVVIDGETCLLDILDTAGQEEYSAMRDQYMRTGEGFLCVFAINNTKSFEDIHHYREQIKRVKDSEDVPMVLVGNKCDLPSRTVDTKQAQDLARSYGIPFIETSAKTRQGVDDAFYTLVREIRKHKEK
Sequence of KRas G12D (P01116 1-169 isoform P01116-2 G12D): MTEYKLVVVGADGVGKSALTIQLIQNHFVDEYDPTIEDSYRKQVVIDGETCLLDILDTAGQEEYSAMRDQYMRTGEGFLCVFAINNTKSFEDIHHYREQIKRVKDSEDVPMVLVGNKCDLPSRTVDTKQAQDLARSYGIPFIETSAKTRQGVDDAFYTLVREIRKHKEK
T2 sequence (P01116 1-169 isoform P01116-2 G13D): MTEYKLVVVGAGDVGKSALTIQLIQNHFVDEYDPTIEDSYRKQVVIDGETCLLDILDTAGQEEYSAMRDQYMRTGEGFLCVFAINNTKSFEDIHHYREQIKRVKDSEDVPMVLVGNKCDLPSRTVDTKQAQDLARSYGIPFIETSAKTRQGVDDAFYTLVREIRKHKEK
T1 sequence (P01116 1-169 isoform P01116-2 Q61H): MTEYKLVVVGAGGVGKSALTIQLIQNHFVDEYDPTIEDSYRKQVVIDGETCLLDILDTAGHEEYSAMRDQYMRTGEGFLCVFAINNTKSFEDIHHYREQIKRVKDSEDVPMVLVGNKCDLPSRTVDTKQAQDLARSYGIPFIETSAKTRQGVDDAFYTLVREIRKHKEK
Sequence of KRas WT (P01116 1-169 isoform P01116-2): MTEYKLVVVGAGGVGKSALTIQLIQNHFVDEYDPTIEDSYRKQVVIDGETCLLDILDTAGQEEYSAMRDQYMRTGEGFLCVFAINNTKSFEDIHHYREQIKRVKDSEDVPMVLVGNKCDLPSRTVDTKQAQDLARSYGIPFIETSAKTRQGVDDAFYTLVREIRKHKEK
Sequence of KRas G12S (P01116 1-169 isoform P01116-2 G12S): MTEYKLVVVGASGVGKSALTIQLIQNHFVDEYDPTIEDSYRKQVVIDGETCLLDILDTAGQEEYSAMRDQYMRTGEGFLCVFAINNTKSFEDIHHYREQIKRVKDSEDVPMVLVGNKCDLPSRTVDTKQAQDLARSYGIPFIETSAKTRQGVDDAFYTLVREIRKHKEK
Sequence of KRas G12A (P01116 1-169 isoform P01116-2 G12A): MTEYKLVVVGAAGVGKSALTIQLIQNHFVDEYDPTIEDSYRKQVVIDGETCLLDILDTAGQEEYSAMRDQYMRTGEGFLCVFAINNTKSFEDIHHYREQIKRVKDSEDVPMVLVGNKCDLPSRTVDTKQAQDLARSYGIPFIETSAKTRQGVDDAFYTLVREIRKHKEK

| Compound | IC50 [1] [nM] | IC50 ([2]; Homo sapiens, NCI-H460, 3 h) [nM] | IC50 [3] [nM] | IC50 ([4]; Homo sapiens, NCI-H727, 3 h) [nM] | IC50 ([5]; Homo sapiens, ASPC1, 3 h) [nM] | IC50 [6] [nM] | IC50 [7] [nM] | IC50 [8] [nM] | IC50 [9] [nM] | IC50 [10] [nM] | IC50 [11] [nM] | IC50 [2] [nM] | IC50 [4] [nM] | IC50 [5] [nM] | IC50 [12] [nM] | IC50 [13] [nM] | IC50 [14] [nM] | IC50 [15] [nM] | IC50 [16] [nM] | IC50 [17] [nM] |
| --- | --- | --- | --- | --- | --- | --- | --- | --- | --- | --- | --- | --- | --- | --- | --- | --- | --- | --- | --- | --- |
| CCc1c(F)ccc2cc(O)cc(-c3ncc4c(NCc5c[nH]c6ncccc56)nc(OC[C@@]56CCCN5C[C@H](F)C6)nc4c3F)c12 [62.] | 7 | 154 | 24 | 178 | 591 | ≥ 10000 | 410 | 87 |  |  |  |  |  |  |  |  |  |  |  |  |
| C#Cc1c(F)ccc2cccc(-c3ncc4c(N5CCCC6(CNC(=O)C6)C5)nc(OC[C@@]56CCCN5C[C@H](F)C6)nc4c3F)c12 (stereo partly drawn) [Example 36, 7-(7-(8-ethynyl-7-fluoronaphthalen-1-yl)-8-fluoro-2-(((2R,7aS)-2-fluorohexahydro-1H-pyrrolizin-7a-yl)methoxy)pyrido[4,3-d]pyrimidin-4-yl)-2,7-diazaspiro[4.5]decan-3-one] | 1180 | 557 | 1130 | 3390 | 1540 | ≥ 10000 | 1610 | 2150 | 9 | 20 | 24 |  |  |  |  |  |  |  |  |  |
| CCc1c(F)ccc2cc(O)cc(-c3ncc4c(N5CCCC6(CNC(=O)C6)C5)nc(OC[C@@]56CCCN5C[C@H](F)C6)nc4c3F)c12 (stereo partly drawn) [Example 38] | 143 | 573 | 324 | 1190 | 966 | 7620 | 814 | 3270 | ≤ 2 | ≤ 2 | ≤ 2 |  |  |  |  |  |  |  |  |  |
| CCc1c(F)ccc2cc(O)cc(-c3ncc4c(N5C[C@H](O)C[C@@H](O)C5)nc(OC[C@@]56CCCN5C[C@H](F)C6)nc4c3F)c12 [Example 59] | 107 |  | 176 |  |  | ≥ 10000 | 1270 | 3560 | ≤ 2 | ≤ 2 | ≤ 2 | 296 | 769 | 577 |  |  |  |  |  |  |
| CCc1c(F)ccc2cc(O)cc(-c3ncc4c(NCC5CNC(=O)C5)nc(OC[C@@]56CCCN5C[C@H](F)C6)nc4c3F)c12 (stereo partly drawn) [Example 60] | 230 | 1030 | 389 | 1260 | 3890 | ≥ 10000 | 3600 | 5530 | ≤ 2 | ≤ 2 | ≤ 2 |  |  |  |  |  |  |  |  |  |
| CCc1c(F)ccc2cc(O)cc(-c3ncc4c(N5CCC6(CC5)CC(=O)N6)nc(OC[C@@]56CCCN5C[C@H](F)C6)nc4c3F)c12 [Example 73] | 23 | 176 | 98 | 756 | 3490 | ≥ 10000 | 128 | 191 | 5 | ≤ 2 | ≤ 2 |  |  |  |  |  |  |  |  |  |
| CCc1c(F)ccc2cc(O)cc(-c3ncc4c(N5CC(n6ccnc6)C5)nc(OC[C@@]56CCCN5C[C@H](F)C6)nc4c3F)c12 [Example 134, 4-(4-(3-(1H-imidazol-1-yl)azetidin-1-yl)-8-fluoro-2-(((2R,7aS)-2-fluorohexahydro-1H-pyrrolizin-7a-yl)methoxy)pyrido[4,3-d]pyrimidin-7-yl)-5-ethyl-6-fluoronaphthalen-2-ol] | 178 | 666 | 48 | ≥ 10000 | ≥ 10000 | ≥ 10000 | ≥ 10000 | 1490 |  |  |  |  |  |  |  |  |  |  |  |  |
| CCc1c(F)ccc2cc(O)cc(-c3ncc4c(NCCCc5cc[nH]n5)nc(OC[C@@]56CCCN5C[C@H](F)C6)nc4c3F)c12 [Example 135, 4-(4-((3-(1H-pyrazol-3-yl)propyl)amino)-8-fluoro-2-(((2R,7aS)-2-fluorohexahydro-1H-pyrrolizin-7a-yl)methoxy)pyrido[4,3-d]pyrimidin-7-yl)-5-ethyl-6-fluoronaphthalen-2-ol] | 53 | 647 | 37 | ≥ 10000 | 2060 | ≥ 10000 | 3270 | 2460 | 31 | 3 | 3 |  |  |  |  |  |  |  |  |  |
| Oc1cc(-c2ncc3c(N4CCCC(c5ncn[nH]5)C4)nc(OCC45CCCN4CCC5)nc3c2F)c2c(F)c(F)ccc2c1 (stereo not drawn) [Example 137, 4-(4-(3-(1H-1,2,4-triazol-5-yl)piperidin-1-yl)-8-fluoro-2-((hexahydro-1H-pyrrolizin-7a-yl)methoxy)pyrido[4,3-d]pyrimidin-7-yl)-5,6-difluoronaphthalen-2-ol] | ≥ 10000 | ≥ 10000 | 2040 | ≥ 10000 | ≥ 10000 | ≥ 10000 | ≥ 10000 | ≥ 10000 | ≤ 2 | ≤ 2 | 3 |  |  |  |  |  |  |  |  |  |
| C[C@@]1(O)CCCN(c2nc(OC[C@@]34CCCN3C[C@H](F)C4)nc3c(F)c(-c4c5ccccc5cc5[nH]ncc45)ncc23)C1 [Example 154, (3R)-1-(7-(1H-benzo[f]indazol-4-yl)-8-fluoro-2-(((2R,7aS)-2-fluorohexahydro-1H-pyrrolizin-7a-yl)methoxy)pyrido[4,3-d]pyrimidin-4-yl)-3-methylpiperidin-3-ol] |  |  | 840 | ≥ 10000 |  | ≥ 10000 | 1460 | 8450 | 33 | 28 | 66 |  |  |  | 53 | 34 | 54 | 43 | 42 | 43 |
| CCc1c(F)ccc2cc(O)cc(-c3ncc4c(NC5CS(=O)(=O)C5)nc(OC[C@@]56CCCN5C[C@H](F)C6)nc4c3F)c12 [Example 168] |  |  | 156 | 1800 |  | ≥ 10000 | 821 | ≥ 10000 | 5 | ≤ 2 | ≤ 2 |  |  |  |  |  |  |  |  |  |
| CCc1c(F)ccc2cc(O)cc(-c3ncc4c(N5CCCC(CS(N)(=O)=O)C5)nc(OC[C@@]56CCCN5C[C@H](F)C6)nc4c3F)c12 (stereo partly drawn) [Example 170] |  |  | 470 | 3400 |  | ≥ 10000 | 2350 | ≥ 10000 | ≤ 2 | ≤ 2 | ≤ 2 |  |  |  |  |  |  |  |  |  |
| CCc1c(F)ccc2cc(O)cc(-c3ncc4c(Nc5ccc6cn[nH]c6c5)nc(OC[C@@]56CCCN5C[C@H](F)C6)nc4c3F)c12 [Example 171, 4-(4-((1H-indazol-6-yl)amino)-8-fluoro-2-(((2R,7aS)-2-fluorohexahydro-1H-pyrrolizin-7a-yl)methoxy)pyrido[4,3-d]pyrimidin-7-yl)-5-ethyl-6-fluoronaphthalen-2-ol] |  |  | ≥ 10000 | ≥ 10000 |  | ≥ 10000 | ≥ 10000 | ≥ 10000 | 89 | 3 | 9 |  |  |  |  |  |  |  |  |  |
| CCc1c(F)ccc2cc(O)cc(-c3ncc4c(Nc5ccc6cnn(C)c6c5)nc(OC[C@@]56CCCN5C[C@H](F)C6)nc4c3F)c12 [Example 174, 5-ethyl-6-fluoro-4-(8-fluoro-2-(((2R,7aS)-2-fluorohexahydro-1H-pyrrolizin-7a-yl)methoxy)-4-((1-methyl-1H-indazol-6-yl)amino)pyrido[4,3-d]pyrimidin-7-yl)naphthalen-2-ol] |  |  | 1290 | ≥ 10000 |  | ≥ 10000 | ≥ 10000 | 4950 | 89 | 4 | 13 |  |  |  |  |  |  |  |  |  |
| CCc1c(F)ccc2cc(O)cc(-c3ncc4c(NCC5CS(=O)(=O)C5)nc(OC[C@@]56CCCN5C[C@H](F)C6)nc4c3F)c12 [Example 177] |  |  | 54 | ≥ 10000 |  | ≥ 10000 | 1700 | 764 | 3 | ≤ 2 | ≤ 2 |  |  |  |  |  |  |  |  |  |
